Common to all, as to assay: Oxford cup method antibacterial activity
Holding throughout (format): cell-based

Assay [1] deals with Salmonella enterica subsp. arizonae CMCC(B)47001. The following applies: 150 μL of 10 mg/ml in 1% acetonitrile aqueous solution, 1% indicator bacteria, read-out: Diameter of inhibition zone. The method, then: (§1) The antibacterial activity of indole-3-lactic acid obtained by purification in step III in Embodiment 2 (i.e., concentrated H4 with a purity of 99.00%) was determined by an oxford cup method. 1% (volume concentration) of indicator bacteria was added to 150 μL of 10 mg/ml indole-3-lactic acid (dissolved in 1% acetonitrile aqueous solution). […] Listeria monocytogenes LM1, Bacillus subtilis BAS2, Salmonella paratyphi B CMCC50094, Salmonella paratyphi A CMCC50093, Salmonella enterica subsp. arizonae CMCC (B) 47001 and Salmonella typhimurium CMCC50015 were purchased from National Center for Medical Culture Collections (CMCC). Escherichia coli DH5a was purchased from Sangon Biotech (Shanghai) Co., Ltd. Staphylococcus aureus ATCC25923, Pseudomonas aeruginosa ATCC47085, Salmonella enterica subsp. enterica ATCC14028 and Salmonella choleraseuis ATCC13312 were purchased from American Type Culture Collection (ATCC). Micrococcus luteus CICC 10209 was purchased from China Center of Industrial Culture Collection (CICC). Staphylococcus citreus LC5 was purchased from China Center for Type Culture Collection (CCTCC). Staphylococcus simulans, Staphylococcus warneri, Staphylococcus carnosus pCA44 and Staphylococcus carnosus pot20 were presented by Professor Eefjan Breukink of Utrecht University in the Netherlands.

Assay [2] has as its system Micrococcus luteus CICC 10209. Particulars: CICC10209, 150 μL of 10 mg/ml in 1% acetonitrile aqueous solution, 1% indicator bacteria, read-out: Diameter of inhibition zone. How it is done:
as §1

The next assay relates to Escherichia coli DH5α. The following applies: 150 μL of 10 mg/ml in 1% acetonitrile aqueous solution, 1% indicator bacteria, read-out: Diameter of inhibition zone. The method, then: as §1
The test system of assay [3] is Staphylococcus citreus LC5. Particulars: 150 μL of 10 mg/ml in 1% acetonitrile aqueous solution, 1% indicator bacteria, read-out: Diameter of inhibition zone. How it is done: as §1
For assay [4], the system named is Staphylococcus carnosus pot20. Particulars: 150 μL of 10 mg/ml in 1% acetonitrile aqueous solution, 1% indicator bacteria, read-out: Diameter of inhibition zone. How it is done:
as §1

The subject of assay [5] is Salmonella typhimurium CMCC50015. The following applies: Salmonella enterica, 150 μL of 10 mg/ml in 1% acetonitrile aqueous solution, 1% indicator bacteria, read-out: Diameter of inhibition zone. How it is done: as §1
The test system of assay [6] is Salmonella enterica subsp. enterica ATCC14028. The following applies: 150 μL of 10 mg/ml in 1% acetonitrile aqueous solution, 1% indicator bacteria, read-out: Diameter of inhibition zone. How it is done: as §1
Assay [7] concerns Staphylococcus aureus ATCC25923. Particulars: 150 μL of 10 mg/ml in 1% acetonitrile aqueous solution, 1% indicator bacteria, read-out: Diameter of inhibition zone. How it is done: as §1
In a further assay the test system is Staphylococcus warneri. The following applies: 150 μL of 10 mg/ml in 1% acetonitrile aqueous solution, 1% indicator bacteria, read-out: Diameter of inhibition zone. The method, then: as §1
Assay [8] concerns Salmonella paratyphi A CMCC50093. Particulars: Salmonella enterica, 150 μL of 10 mg/ml in 1% acetonitrile aqueous solution, 1% indicator bacteria, read-out: Diameter of inhibition zone. How it is done:
as §1

The test system of a further assay is Staphylococcus simulans. Particulars: 150 μL of 10 mg/ml in 1% acetonitrile aqueous solution, 1% indicator bacteria, read-out: Diameter of inhibition zone. How it is done:
as §1

Assay [9] concerns Salmonella choleraseuis ATCC13312. Particulars: 150 μL of 10 mg/ml in 1% acetonitrile aqueous solution, 1% indicator bacteria, read-out: Diameter of inhibition zone. The method, then: as §1
Assay [10] has as its system Staphylococcus carnosus pCA44. Particulars: PCA44, read-out: Diameter of inhibition zone. The method, then:
as §1

Assay [11] relates to Listeria monocytogenes LM1. Particulars: 150 μL of 10 mg/ml in 1% acetonitrile aqueous solution, 1% indicator bacteria, read-out: Diameter of inhibition zone. The method, then:
as §1

Assay [12] concerns Salmonella paratyphi B CMCC50094. The following applies: Salmonella enterica, 150 μL of 10 mg/ml in 1% acetonitrile aqueous solution, 1% indicator bacteria, read-out: Diameter of inhibition zone. The method, then: as §1
Assay [13] concerns Pseudomonas aeruginosa ATCC47085. The following applies: 150 μL of 10 mg/ml in 1% acetonitrile aqueous solution, 1% indicator bacteria, read-out: Diameter of inhibition zone. How it is done:
as §1

For another assay, the system named is Bacillus subtilis BAS2. The following applies: 150 μL of 10 mg/ml in 1% acetonitrile aqueous solution, 1% indicator bacteria, read-out: Diameter of inhibition zone. How it is done:
as §1

For the molecule `O=C(O)C(O)Cc1c[nH]c2ccccc12` (centres unmarked) [indole-3-lactic acid, Indole-3-lactic acid], the zone of inhibition at 10000 µg/mL in [1] turned out to be 13.4 ± 0.45 mm; in [2] it was 19.1 ± 0.76 mm; with Escherichia coli DH5α it was 12.5 ± 0.17 mm; in assay [3], 13.06 ± 0.08 mm; in [4], 15 ± 0.55 mm; in [5] it was 12.7 ± 0.18 mm. Besides, the zone of inhibition at 10000 µg/mL in assay [6] came to 12.8 ± 0.17 mm; in assay [7] it was 13.4 ± 0.25 mm; in the assay on Staphylococcus warneri it was 18.76 ± 0.06 mm; in assay [8], 15.06 ± 0.08 mm; in the assay with Staphylococcus simulans, 13.4 ± 0.25 mm; in [9], 13.6 ± 0.23 mm. In addition, the zone of inhibition at 10000 µg/mL was found to be 16.4 ± 0.27 mm in assay [10]; 10.95 ± 0.07 mm in assay [11]; 13.2 ± 0.21 mm in assay [12]; 10.66 ± 0.08 mm in [13]; 15.67 ± 0.01 mm with Bacillus subtilis BAS2.

(Values after patent US12522851B2, “Method for purifying indole-3-lactic acid from Lactobacillus plantarum fermentation supernatant” (Zhejiang Gongshang University, priority 2021, dated 2026).)
